The source made the active and inactive calls. The calls are words filed in the database; no cut-off is given here.
Test system: Mus musculus
Assay: Inhibition of morphine-induced intestinal propulsion function in mouse assessed as charcoal propulsion length at 10 mg/kg, ip by charcoal gavage and intestinal motility assays
Type: functional, organism-based

COC(=O)/C=C/C(=O)N[C@@H]1CC[C@@]2(O)[C@H]3Cc4ccc(O)c5c4[C@@]2(CCN3CC2CC2)[C@H]1O5
inhibition: Active

— ChEMBL document CHEMBL5620418
